Results: article doi:10.1101/2022.03.17.484770v1 (biorxiv, 2022)

Target: T1, IRI1/LHT1 (Arabidopsis thaliana, UniProt Q9FKS8)
T1 sequence (Q9FKS8 1-446): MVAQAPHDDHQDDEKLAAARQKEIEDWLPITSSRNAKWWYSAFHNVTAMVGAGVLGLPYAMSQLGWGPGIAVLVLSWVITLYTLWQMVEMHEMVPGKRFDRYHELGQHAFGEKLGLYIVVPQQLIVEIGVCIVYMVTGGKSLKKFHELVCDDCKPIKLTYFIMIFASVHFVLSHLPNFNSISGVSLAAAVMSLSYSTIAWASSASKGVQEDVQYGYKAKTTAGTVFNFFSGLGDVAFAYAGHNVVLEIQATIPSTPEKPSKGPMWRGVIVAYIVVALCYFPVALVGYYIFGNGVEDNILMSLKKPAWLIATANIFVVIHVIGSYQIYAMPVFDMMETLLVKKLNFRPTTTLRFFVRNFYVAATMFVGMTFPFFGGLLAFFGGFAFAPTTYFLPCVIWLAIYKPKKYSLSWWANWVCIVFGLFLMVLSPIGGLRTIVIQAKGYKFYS
Assay: inhibition of […]-L-Ala uptake in yeast
Assay type: cell-based

| Structure (SMILES) | Ki [µM] |
| --- | --- |
| CC(N)CC(=O)O (racemic) [BABA, β-amino butyric acid] | 24.7 |
| N[C@@H](CO)CC(=O)O [RBH, R-β-homoserine] | 39.2 |
